From publication PMC3261753 (Biochemistry, 2011)

Tests used:
[1] = test system: wild-type B. anthracis topoisomerase IV; type: biochemical, Bacillus anthracis
[2] = test system: S. pneumoniae gyrase resistance mutations; details: cited from earlier work
[3] = test system: S. pneumoniae topoisomerase IV resistance mutations; details: cited from earlier work

| SMILES | CC3 (concentration of drug required to triple the percent DNA cleavage observed in the absence of drug) [1] [µM] | Max. DNA cleavage [1] [%] | Relative potency/efficacy of DNA cleavage enhancement among quinolones [1] | other results |
| --- | --- | --- | --- | --- |
| Cc1c(N2CC[C@@H](CN)C2)c(F)cc2c(=O)n(N)c(=O)n(C3CC3)c12 [8-methyl-quinazoline-2,4-dione, 3-Amino-7-[(3S)-3-(aminomethyl)-1-pyrrolidinyl]-1-cyclopropyl-6-fluoro-8-methyl-2,4(1H,3H) -quinazolinedione] | 0.20 | 29.0 |  | Mg2+ concentration for half-maximal DNA cleavage [1]: ~ 0.35 mM; Mg2+ concentration for maximal DNA cleavage [1]: ~ 1 mM; Potency relative to ciprofloxacin (as reflected by the CC3 value) [1]: ~ 2.5 times |
| O=C(O)c1cn(C2CC2)c2cc(N3CCNCC3)c(F)cc2c1=O [Ciprofloxacin] |  |  |  | Drop in potency with mutant enzyme [2]: ~ 8 fold; Drop in potency with mutant enzyme [3]: > 16 fold |
| C[C@H]1COc2c(N3CCN(C)CC3)c(F)cc3c(=O)c(C(=O)O)cn1c23 [Levofloxacin, levofloxacin] | 1.45 | 30.4 | most efficacious | Drug concentration that generated maximal DNA cleavage [1]: 20 µM |
| C[C@@H]1CN(c2c(F)c(N)c3c(=O)c(C(=O)O)cn(C4CC4)c3c2F)C[C@H](C)N1 [sparfloxacin] |  |  | least potent and efficacious quinolone examined |  |
